Laboratory results as given in patent US10077237B2 (Sanofi, priority 2013, dated 2018).
Where “and” joins values, the source holds several entries; their conditions need not be identical. Equal values may be shown once. Where a name gives a salt, the structure may show the parent alone.

Molecular target: T1, recombinant human AMPK complex, containing α2β1γ2 (Homo sapiens, UniProt P54646+Q9Y478)
T1 construct: hsAMPKα2-552-His, hsAMPKβ1-2-270 and hsAMPKγ-2-569 respectively; hsAMPKβ1-2-270; hsAMPKγ-2-569; His (C); made in house; host or cells: Spodoptera frugiperda Sf21 (baculovirus)
T1 sequence (P54646 2-552): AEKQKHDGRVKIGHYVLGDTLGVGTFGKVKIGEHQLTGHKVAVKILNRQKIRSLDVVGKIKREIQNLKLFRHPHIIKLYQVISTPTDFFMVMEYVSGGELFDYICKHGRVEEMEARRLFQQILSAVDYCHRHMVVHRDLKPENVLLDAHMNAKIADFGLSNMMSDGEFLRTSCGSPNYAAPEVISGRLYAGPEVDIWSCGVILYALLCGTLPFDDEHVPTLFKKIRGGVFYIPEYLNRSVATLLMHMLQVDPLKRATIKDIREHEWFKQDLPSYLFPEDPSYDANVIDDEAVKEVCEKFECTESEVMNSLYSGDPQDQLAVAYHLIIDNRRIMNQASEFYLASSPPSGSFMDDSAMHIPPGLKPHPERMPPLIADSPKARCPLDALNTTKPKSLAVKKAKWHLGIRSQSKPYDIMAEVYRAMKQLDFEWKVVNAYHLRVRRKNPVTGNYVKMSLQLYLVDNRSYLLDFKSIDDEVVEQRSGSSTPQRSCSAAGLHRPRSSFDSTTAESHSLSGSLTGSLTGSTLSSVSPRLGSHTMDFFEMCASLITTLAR
T1 sequence (Q9Y478 2-270): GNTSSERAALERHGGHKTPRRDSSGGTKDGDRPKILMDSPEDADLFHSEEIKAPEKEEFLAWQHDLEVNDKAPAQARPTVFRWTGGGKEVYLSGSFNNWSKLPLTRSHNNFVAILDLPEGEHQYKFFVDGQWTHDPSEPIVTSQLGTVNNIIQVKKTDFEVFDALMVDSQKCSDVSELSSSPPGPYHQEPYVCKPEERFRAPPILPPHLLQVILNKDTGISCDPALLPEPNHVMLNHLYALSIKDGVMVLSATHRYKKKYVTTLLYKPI
T1 sequence (Q9UGJ0 2-569 partner limits assumed): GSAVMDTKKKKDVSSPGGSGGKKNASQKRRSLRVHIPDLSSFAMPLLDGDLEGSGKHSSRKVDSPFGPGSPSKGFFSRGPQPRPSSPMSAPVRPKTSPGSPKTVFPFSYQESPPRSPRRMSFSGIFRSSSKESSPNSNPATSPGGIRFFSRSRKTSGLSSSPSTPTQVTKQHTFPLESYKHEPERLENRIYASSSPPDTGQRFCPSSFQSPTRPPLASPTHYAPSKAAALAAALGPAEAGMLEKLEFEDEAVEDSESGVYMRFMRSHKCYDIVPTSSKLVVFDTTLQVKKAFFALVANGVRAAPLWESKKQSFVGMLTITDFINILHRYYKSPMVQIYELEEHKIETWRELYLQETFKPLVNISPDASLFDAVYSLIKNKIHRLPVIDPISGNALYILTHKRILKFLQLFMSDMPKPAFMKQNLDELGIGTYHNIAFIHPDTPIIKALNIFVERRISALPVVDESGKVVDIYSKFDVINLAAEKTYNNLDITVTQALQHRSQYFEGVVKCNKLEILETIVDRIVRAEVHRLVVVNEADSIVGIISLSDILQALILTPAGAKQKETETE
Assay: AMPK in vitro activation assay (HTRF)
Type: biochemical
Conditions: for EC50: HTRF, recombinant human α2β1γ2 AMPK, 200 μM ATP, biotinylated ACC-CREBp peptide, repeat determinations on separate lines; for Emax: potentiation of AMPK activity as percent over the basal signal (without compound)
Method in brief: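 Sf21-expressed, Ni-NTA partially purified α2β1γ2 complex preincubated 30 min at room temperature with compound (0.5% DMSO) in HEPES pH 7.0, MgCl2, DTT. Reaction was started with a solution holding 200 μM ATP and 2 or 0.08 μM biotinylated ACC-CREBp peptide, run 45 min at 37° C, then read by HTRF with anti-pS133-CREB; EC50 from percent over basal.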

Molecule O=C1Nc2cc(Cl)c(-c3ccc(N4CCOCC4)cc3)cc2C1=C(O)c1ccc(F)cc1 [Compound 36, 6-Chloro-3-[1-(4-fluoro-phenyl)-1-hydroxy-methylidene]-5-(4-morpholin-4-yl-phenyl)-1,3-dihydro-indol-2-one] has an EC50 of 380 nM and an Emax of 153%.
Work on Cc1ccc(C(O)=C2C(=O)Nc3cc(Cl)c(-c4ccc(C5(CO)CC5)cc4)cc32)s1 [Compound 123, 6-chloro-5-[4-[1-(hydroxymethyl)cyclopropyl]phenyl]-3-[hydroxy-(5-methyl-2-thienyl)methylene]indolin-2-one] yielded an EC50 of 0.4 nM and an Emax of 272%.
For Cc1cc(C(O)=C2C(=O)Nc3cc(Cl)c(-c4ccc(Cl)cc4)cc32)on1 [Compound 63, 6-Chloro-5-(4-chloro-phenyl)-3-[1-hydroxy-1-(3-methyl-isoxazol-5-yl)-methylidene]-1,3-dihydro-indol-2-one], the EC50 was 4020 nM and the Emax was 134%.
Cc1[nH]c(=O)sc1C(O)=C1C(=O)Nc2cc(Cl)c(-c3ccc(N4CCOCC4)cc3)cc21 [Compound 107, 5-[-[6-chloro-5-(4-morpholinophenyl)-2-oxo-indolin-3-ylidene]-hydroxy-methyl]-4-methyl-3H-thiazol-2-one] showed an EC50 of 36 nM and an Emax of 104%.
For COc1ccc(C(O)=C2C(=O)Nc3cc(Cl)c(-c4ccc(N5CCOCC5)cc4)cc32)cn1 [Compound 151, 6-chloro-3-[hydroxy-(6-methoxy-3-pyridyl)methylene]-5-(4-morpholinophenyl)indolin-2-one], the EC50 was 6 nM and the Emax was 161%.
CCOc1cc(C(O)=C2C(=O)Nc3cc(Cl)c(-c4ccc(-c5cccc(OC)c5O)cc4)cc32)on1 [Compound 105, 6-chloro-3-[(3-ethoxyisoxazol-5-yl)hydroxy-methylene]-5-[4-(2-hydroxy-3-methoxy-phenyl)phenyl]indolin-2-one] gave an EC50 of 0.3 nM and an Emax of 74%.
COc1cc(C(O)=C2C(=O)Nc3cc(Cl)c(-c4cnc(N(C)C)nc4)cc32)on1 [Compound 145, 6-chloro-5-[2-(dimethylamino)pyrimidin-5-yl]-3-[hydroxy-(3-methoxyisoxazol-5-yl)methylene]indolin-2-one] showed an EC50 of 95 nM and an Emax of 257%.
Work on O=C1Nc2cc(Cl)c(-c3ccc(C4(CO)CC4)cc3)cc2C1=C(O)c1cncc(F)c1 [Compound 142, 6-chloro-3-[(5-fluoro-3-pyridyl)hydroxy-methylene]-5-[4-[1-(hydroxymethyl)cyclopropyl]phenyl]indolin-2-one] yielded an EC50 of 6 nM and an Emax of 239%.
COc1cc(C(O)=C2C(=O)Nc3cc(Cl)c(-c4ccc(OC5CCN(C)CC5)cc4)cc32)on1 [Compound 124, 6-chloro-3-[hydroxy-(3-methoxyisoxazol-5-yl)methylene]-5-[4-[(1-methyl-4-piperidyl)oxy]phenyl]indolin-2-one hydrochloride] gave an EC50 of 25 nM and an Emax of 231%.
In the case of COc1cc(C(O)=C2C(=O)Nc3cc(Cl)c(-c4ccc(N(C)C)cc4F)cc32)on1 [Compound 148, 6-chloro-5-[4-(dimethylamino)-2-fluoro-phenyl]-3-[hydroxy-(3-methoxyisoxazol-5-yl)methylene]indolin-2-one], the EC50 is reported as 1 nM and the Emax is reported as 158%.
With Cc1ncc(C(O)=C2C(=O)Nc3cc(Cl)c(-c4ccc(C5(CO)CC5)cc4)cc32)s1 [Compound 75, 6-Chloro-5-[4-(1-hydroxymethyl-cyclopropyl)phenyl]-3-[1-hydroxy-1-(2-methyl-thiazol-5-yl)methylidene]-1,3-dihydro-indol-2-one] the EC50 was 1 nM and the Emax was 142%.
COc1cc(C(O)=C2C(=O)Nc3cc(Cl)c(-c4ccc(OC5CCC(O)CC5)cc4)cc32)on1 (stereo not shown) [Compound 152, 6-chloro-5-[4-(4-hydroxycyclohexoxy)phenyl]-3-[hydroxy-(3-methoxyisoxazol-5-yl)methylene]indolin-2-one] showed an EC50 of 9 nM and an Emax of 223%.
Cc1cc(C(O)=C2C(=O)Nc3cc(Cl)c(-c4ccc(-c5ccncc5)cc4)cc32)on1 [Compound 35, 6-Chloro-3-[1-hydroxy-1-(3-methyl-isoxazol-5-yl)-methylidene]-5-(4-pyridin-4-yl-phenyl)-1,3-dihydro-indol-2-one, hydrochloride] was tested, and the EC50 was 23 nM and the Emax was 151%.
Work on O=C1Nc2cc(Cl)c(-c3ccc(C4(CO)CC4)cc3)cc2C1=C(O)c1cccs1 [Compound 114, 6-chloro-5-[4-[1-(hydroxymethyl)cyclopropyl]phenyl]-3-[hydroxy(2-thienyl)methylene]indolin-2-one] yielded an EC50 of 4 nM and an Emax of 143%.
Work on O=C1Nc2cc(Cl)c(-c3ccc(N4CCOCC4)cc3)cc2C1=C(O)c1cc(O)no1 [Compound 102, 6-chloro-3-[hydroxy-(3-hydroxyisoxazol-5-yl)methylene]-5-(4-morpholinophenyl)indolin-2-one] yielded an EC50 of 2 nM and an Emax of 122%.
With Cc1cc(C(O)=C2C(=O)Nc3cc(F)c(-c4ccc(N5CCOCC5)cc4)cc32)on1 [Compound 29, 6-Fluoro-3-[1-hydroxy-1-(3-methyl-isoxazol-5-yl)-methylidene]-5-(4-morpholin-4-yl-phenyl)-1,3-dihydro-indol-2-one] the EC50 was 58 nM and the Emax was 157%.
With COc1cc(C(O)=C2C(=O)Nc3cc(Cl)c(-c4ccc(N(C)C)c(F)c4)cc32)on1 [Compound 147, 6-chloro-5-[4-(dimethylamino)-3-fluoro-phenyl]-3-[hydroxy-(3-methoxyisoxazol-5-yl)methylene]indolin-2-one] the EC50 was 15 nM and the Emax was 267%.
COc1ccc(C(O)=C2C(=O)Nc3cc(Cl)c(-c4ccc(-c5cccc(OC)c5O)cc4)cc32)cc1F [Compound 84, 6-chloro-3-[(3-fluoro-4-methoxy-phenyl)hydroxy-methylene]-5-[4-(2-hydroxy-3-methoxy-phenyl)phenyl]indolin-2-one] was tested, and the EC50 was 0.6 nM and 1 nM and the Emax was 170%.
For Cc1cc(C(O)=C2C(=O)Nc3cc(Cl)c(-c4ccc(C5CCCO5)cc4)cc32)on1 (stereo not shown) [Compound 68, 6-Chloro-3-[1-hydroxy-1-(3-methyl-isoxazol-5-yl)methylidene]-5-[4-(tetrahydro-furan-2-yl)phenyl]-1,3-dihydro-indol-2-one], the EC50 was 150 nM and the Emax was 208%.
Work on O=C1Nc2cc(Cl)c(-c3ccc(C4(CO)CC4)cc3)cc2C1=C(O)c1ccc(Cl)s1 [Compound 130, 6-chloro-3-[(5-chloro-2-thienyl)hydroxy-methylene]-5-[4-[1-(hydroxymethyl)cyclopropyl]phenyl]indolin-2-one] yielded an EC50 of 9 nM and an Emax of 373%.
For Cc1cc(C(O)=C2C(=O)Nc3cc(Cl)c(-c4ccc(N5CCOCC5)cc4)cc32)on1 [Compound 14, 6-Chloro-3-[1-hydroxy-1-(3-methyl-isoxazol-5-yl)-methylidene]-5-(4-morpholin-4-yl-phenyl)-1,3-dihydro-indol-2-one], the EC50 was 38 nM and the Emax was 283%.
Molecule COc1cc(C(O)=C2C(=O)Nc3cc(Cl)c(-c4ccc(N5CCOCC5)c(F)c4)cc32)on1 [Compound 149, 6-chloro-5-(3-fluoro-4-morpholino-phenyl)-3-[hydroxy-(3-methoxyisoxazol-5-yl)methylene]indolin-2-one] has an EC50 of 6 nM and an Emax of 170%.
Molecule O=C1Nc2cc(Cl)c(-c3ccc(N4CCOCC4)cc3)cc2C1=C(O)c1ccccc1F [Compound 32, 6-Chloro-3-[1-(2-fluoro-phenyl)-1-hydroxy-methylidene]-5-(4-morpholin-4-yl-phenyl)-1,3-dihydro-indol-2-one] has an EC50 of 140 nM and an Emax of 112%.
